{"source": "patent US20230381190A1", "about": "“Methods and Treatment for Complex Lymphatic Malformations” (priority 2022, published 2023)", "key": {"[1]": {"settings": "cited from earlier work"}, "[2]": {"settings": "cited from earlier work", "remark": "listed apart in the source"}, "[3]": {"experiment": "Modeling and simulation of human PK for dose selection", "settings": "total daily dose 1.0 mg, divided every 12 hours, 50th percentile", "text": "The doses proposed for this study were selected after modeling and simulation of the human PK of CERC-006 using data reported by Mateo et al (Mateo J, Olmos D, Dumez H, et al. A first in man, dose-finding study of the mTORC1/mTORC2 inhibitor OSI-027 in patients with advanced solid malignancies. Br J Cancer. 2016114(8):889-896) and comparing the PK/PD response for sirolimus in patients with complicated vascular anomalies published by Adams et al (Adams et al, Pediatrics (2016)) and Mizuno et al (Mizuno T, Emoto C, Fukuda T, et al. Model-based precision dosing of sirolimus in pediatric patients with vascular anomalies. Eur J Pharm Sci. 2017; 109S:S124-S131). The goal was to estimate doses that would produce effective trough plasma concentrations of CERC-006 in relation to pharmacological target potency (mTOR complex inhibition) using the PK/PD response achieved by sirolimus in this patient population as a benchmark. […] The additional dose proposed, 2.0 mg/day, is necessary to ensure potential therapeutic benefit while preserving safety and providing a range of plasma concentrations to guide future PK/PD modeling efforts."}, "[4]": {"settings": "regardless of relationship, 123 subjects"}, "[5]": {"settings": "linear extrapolation from simulated PK profile, listed as CERC-006"}}, "note": "Several values for one entry are separate records, joined by “and”; a condition that tells them apart may be missing. Identical values can stand only once. Like-named read-outs stand apart in the source and are kept apart here."}
{"smiles": "COc1cccc2cc(-c3nc([C@H]4CC[C@H](C(=O)O)CC4)n4ncnc(N)c34)[nH]c12", "note": "[AVTX-006, trans-4-[4-Amino-5-(7-methoxyl-1H-indol-2-yl)-imidazo[5,1-f][1,2,4]triazine-7-yl]-cyclohexanecarboxylic acid]", "values": [{"measurement": "Estimated terminal half-life (t1/2)", "setting": "[1]; 240 mg dose in S2 (weekly dose schedule)", "value": "approximately 14 hours"}, {"measurement": "Dose proportionality of area under the curve (AUC)", "setting": "[1]; S1 and S2, slope close to 1", "value": "dose proportional"}, {"measurement": "Dose proportionality of increases in Cmax", "setting": "[1]; S1 and S3", "value": "apparently proportional to dose"}, {"measurement": "Subjects with TEAEs considered drug regimen-related", "setting": "[2]; 92 of 123 subjects, by the investigator", "value": 74.8, "unit": "%"}, {"measurement": "Drug regimen related TEAE anorexia", "setting": "[2]; 123 subjects", "value": 21.1, "unit": "%"}, {"measurement": "Drug regimen related TEAE fatigue", "setting": "[2]; 123 subjects", "value": 44.7, "unit": "%"}, {"measurement": "Drug regimen related TEAE increased blood creatinine", "setting": "[2]; 123 subjects", "value": 26.0, "unit": "%"}, {"measurement": "Drug regimen related TEAE nausea", "setting": "[2]; 123 subjects", "value": 40.7, "unit": "%"}, {"measurement": "Drug regimen related TEAE vomiting", "setting": "[2]; 123 subjects", "value": 18.7, "unit": "%"}, {"measurement": "Subjects with related SAEs", "setting": "[2]; Fifteen subjects", "value": 12.2, "unit": "%"}, {"measurement": "Subjects with serious adverse events (SAEs)", "setting": "[2]; Fifty of 123 subjects treated", "value": 40.6, "unit": "%"}, {"measurement": "Maximum tolerated dose (MTD)", "setting": "[2]; S1: once daily for 3 consecutive days every 7 days", "value": 120, "unit": "mg"}, {"measurement": "Deaths, subjects", "setting": "[2]; S1", "value": 48.2, "unit": "%"}, {"measurement": "Maximum tolerated dose (MTD)", "setting": "[2]; S2: once weekly, escalation stopped at 240 mg every week", "value": "not reached"}, {"measurement": "Deaths, subjects", "setting": "[2]; S2", "value": 25.6, "unit": "%"}, {"measurement": "Maximum tolerated dose (MTD)", "setting": "[2]; S3: once daily dosing", "value": 30, "unit": "mg"}, {"measurement": "Dose at which renal toxicity was dose limiting", "setting": "[2]; S3: once daily", "value": 40, "unit": "mg"}, {"measurement": "Deaths, subjects", "setting": "[2]; S3", "value": 14.3, "unit": "%"}, {"measurement": "Deaths considered drug related", "setting": "[2]; all schedules", "value": "None"}, {"measurement": "Observed dose limiting toxicities (DLTs)", "setting": "[2]; all schedules", "value": "fatigue, renal, and cardiac events"}, {"measurement": "Related SAE anorexia", "setting": "[2]; in vivo", "value": 1, "unit": "subject"}, {"measurement": "Related SAE blood creatinine increased", "setting": "[2]; in vivo", "value": 2, "unit": "subjects"}, {"measurement": "Related SAE bone pain", "setting": "[2]; in vivo", "value": 1, "unit": "subject"}, {"measurement": "Related SAE cardiac failure congestive", "setting": "[2]; in vivo", "value": 1, "unit": "subject"}, {"measurement": "Related SAE cataract subcapsular", "setting": "[2]; in vivo", "value": 1, "unit": "subject"}, {"measurement": "Related SAE diarrhea", "setting": "[2]; in vivo", "value": 1, "unit": "subject"}, {"measurement": "Related SAE fatigue", "setting": "[2]; in vivo", "value": 3, "unit": "subjects"}, {"measurement": "Related SAE myocardial infarction", "setting": "[2]; in vivo", "value": 1, "unit": "subject"}, {"measurement": "Related SAE nausea", "setting": "[2]; in vivo", "value": 3, "unit": "subjects"}, {"measurement": "Related SAE pneumonia", "setting": "[2]; in vivo", "value": 1, "unit": "subject"}, {"measurement": "Related SAE renal failure", "setting": "[2]; in vivo", "value": 1, "unit": "subject"}, {"measurement": "Related SAE stress cardiomyopathy", "setting": "[2]; in vivo", "value": 1, "unit": "subject"}, {"measurement": "Related SAE supraventricular tachycardia", "setting": "[2]; in vivo", "value": 1, "unit": "subject"}, {"measurement": "Related SAE urticaria", "setting": "[2]; in vivo", "value": 1, "unit": "subject"}, {"measurement": "Related SAE vomiting", "setting": "[2]; in vivo", "value": 2, "unit": "subjects"}, {"measurement": "TEAE abdominal pain upper, subjects", "setting": "[2]; [4]", "value": 10.6, "unit": "%"}, {"measurement": "TEAE abdominal pain, subjects", "setting": "[2]; [4]", "value": 17.1, "unit": "%"}, {"measurement": "TEAE anemia, subjects", "setting": "[2]; [4]", "value": 13.8, "unit": "%"}, {"measurement": "TEAE anorexia, subjects", "setting": "[2]; [4]", "value": 40.7, "unit": "%"}, {"measurement": "TEAE back pain, subjects", "setting": "[2]; [4]", "value": 14.6, "unit": "%"}, {"measurement": "TEAE blood creatinine increased, subjects", "setting": "[2]; [4]", "value": 28.5, "unit": "%"}, {"measurement": "TEAE constipation, subjects", "setting": "[2]; [4]", "value": 25.2, "unit": "%"}, {"measurement": "TEAE cough, subjects", "setting": "[2]; [4]", "value": 14.6, "unit": "%"}, {"measurement": "TEAE diarrhea, subjects", "setting": "[2]; [4]", "value": 22.8, "unit": "%"}, {"measurement": "TEAE dyspnea, subjects", "setting": "[2]; [4]", "value": 17.1, "unit": "%"}, {"measurement": "TEAE fatigue, subjects", "setting": "[2]; [4]", "value": 65.0, "unit": "%"}, {"measurement": "TEAE headache, subjects", "setting": "[2]; [4]", "value": 14.6, "unit": "%"}, {"measurement": "TEAE hypokalemia, subjects", "setting": "[2]; [4]", "value": 12.2, "unit": "%"}, {"measurement": "TEAE nausea, subjects", "setting": "[2]; [4]", "value": 60.2, "unit": "%"}, {"measurement": "TEAE vomiting, subjects", "setting": "[2]; [4]", "value": 33.3, "unit": "%"}, {"measurement": "TEAE weight decreased, subjects", "setting": "[2]; [4]", "value": 13.8, "unit": "%"}, {"measurement": "Free trough concentration above the in vitro IC50 for mTOR complex inhibition", "setting": "[3]", "value": "approximately 2 fold"}, {"measurement": "Free trough plasma concentration", "setting": "[3]; [5]", "value": "~4 ng/mL and ~10 nM"}, {"measurement": "Total trough plasma concentration", "setting": "[3]; [5]", "value": "approximately 27 ng/mL and ~66 nM"}]}
